Calls of active or inactive are those of the source. No cut-off for these calls is given here.
Key:
[1] = target: Centromere-associated protein E (Homo sapiens) (UniProt Q02224); assay: Inhibition of microtubule-stimulated CENP-E motor domain (1 to 339) (unknown origin) ATPase activity at 6.3 uM
Mus musculus = assay: Toxicity in athymic nude BALB/cAJcL mouse xenografted with HCT116 cells assessed as mortality at 25 mg/kg, iv administered on days 1,3,5,8,10 and 12; format: organism-based, HCT-116; details: in vivo
[2] = target: T1, Kinesin-like protein KIF11 (Homo sapiens, UniProt P52732); assay: Inhibition of His-tagged KSP motor domain (1 to 369) (unknown origin) assessed as inhibition of microtubule-stimulated KSP ATPase activity preincuabted for 30 mins followed by ATP addition measured after 15 mins by Kinase-Glo assay
T1 sequence (P52732 whole entry): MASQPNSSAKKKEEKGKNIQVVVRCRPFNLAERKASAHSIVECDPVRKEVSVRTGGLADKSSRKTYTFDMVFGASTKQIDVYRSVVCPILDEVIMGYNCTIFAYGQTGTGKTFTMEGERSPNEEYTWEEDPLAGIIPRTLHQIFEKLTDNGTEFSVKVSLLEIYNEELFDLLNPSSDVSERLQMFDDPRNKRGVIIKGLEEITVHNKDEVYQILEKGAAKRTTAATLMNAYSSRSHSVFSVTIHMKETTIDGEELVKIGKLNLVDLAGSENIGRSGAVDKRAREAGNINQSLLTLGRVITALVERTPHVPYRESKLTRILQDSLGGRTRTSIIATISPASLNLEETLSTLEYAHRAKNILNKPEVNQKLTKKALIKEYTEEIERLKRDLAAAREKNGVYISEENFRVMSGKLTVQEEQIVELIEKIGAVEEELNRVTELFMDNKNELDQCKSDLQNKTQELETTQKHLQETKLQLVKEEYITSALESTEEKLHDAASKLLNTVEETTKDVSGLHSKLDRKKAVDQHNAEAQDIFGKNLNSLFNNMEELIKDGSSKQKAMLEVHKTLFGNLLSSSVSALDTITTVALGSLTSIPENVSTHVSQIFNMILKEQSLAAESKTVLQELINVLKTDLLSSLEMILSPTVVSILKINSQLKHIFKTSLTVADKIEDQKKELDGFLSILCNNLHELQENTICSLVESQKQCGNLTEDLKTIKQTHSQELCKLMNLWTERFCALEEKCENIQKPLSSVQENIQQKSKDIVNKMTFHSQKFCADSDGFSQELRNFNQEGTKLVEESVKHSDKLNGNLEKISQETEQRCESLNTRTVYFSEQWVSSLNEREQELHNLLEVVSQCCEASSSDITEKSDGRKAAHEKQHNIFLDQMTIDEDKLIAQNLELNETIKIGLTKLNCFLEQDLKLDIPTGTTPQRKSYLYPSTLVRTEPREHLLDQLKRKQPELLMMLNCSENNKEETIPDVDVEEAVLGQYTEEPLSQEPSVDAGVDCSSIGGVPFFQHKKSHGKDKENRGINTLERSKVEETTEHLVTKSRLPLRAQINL

[3] = target: T2, Kinesin-like protein KIF15 (Homo sapiens) (UniProt Q9NS87); assay: Inhibition of microtubule-stimulated KIF15 motor domain (1 to 372) (unknown origin) ATPase activity at 6.3 uM
T2 sequence (whole entry): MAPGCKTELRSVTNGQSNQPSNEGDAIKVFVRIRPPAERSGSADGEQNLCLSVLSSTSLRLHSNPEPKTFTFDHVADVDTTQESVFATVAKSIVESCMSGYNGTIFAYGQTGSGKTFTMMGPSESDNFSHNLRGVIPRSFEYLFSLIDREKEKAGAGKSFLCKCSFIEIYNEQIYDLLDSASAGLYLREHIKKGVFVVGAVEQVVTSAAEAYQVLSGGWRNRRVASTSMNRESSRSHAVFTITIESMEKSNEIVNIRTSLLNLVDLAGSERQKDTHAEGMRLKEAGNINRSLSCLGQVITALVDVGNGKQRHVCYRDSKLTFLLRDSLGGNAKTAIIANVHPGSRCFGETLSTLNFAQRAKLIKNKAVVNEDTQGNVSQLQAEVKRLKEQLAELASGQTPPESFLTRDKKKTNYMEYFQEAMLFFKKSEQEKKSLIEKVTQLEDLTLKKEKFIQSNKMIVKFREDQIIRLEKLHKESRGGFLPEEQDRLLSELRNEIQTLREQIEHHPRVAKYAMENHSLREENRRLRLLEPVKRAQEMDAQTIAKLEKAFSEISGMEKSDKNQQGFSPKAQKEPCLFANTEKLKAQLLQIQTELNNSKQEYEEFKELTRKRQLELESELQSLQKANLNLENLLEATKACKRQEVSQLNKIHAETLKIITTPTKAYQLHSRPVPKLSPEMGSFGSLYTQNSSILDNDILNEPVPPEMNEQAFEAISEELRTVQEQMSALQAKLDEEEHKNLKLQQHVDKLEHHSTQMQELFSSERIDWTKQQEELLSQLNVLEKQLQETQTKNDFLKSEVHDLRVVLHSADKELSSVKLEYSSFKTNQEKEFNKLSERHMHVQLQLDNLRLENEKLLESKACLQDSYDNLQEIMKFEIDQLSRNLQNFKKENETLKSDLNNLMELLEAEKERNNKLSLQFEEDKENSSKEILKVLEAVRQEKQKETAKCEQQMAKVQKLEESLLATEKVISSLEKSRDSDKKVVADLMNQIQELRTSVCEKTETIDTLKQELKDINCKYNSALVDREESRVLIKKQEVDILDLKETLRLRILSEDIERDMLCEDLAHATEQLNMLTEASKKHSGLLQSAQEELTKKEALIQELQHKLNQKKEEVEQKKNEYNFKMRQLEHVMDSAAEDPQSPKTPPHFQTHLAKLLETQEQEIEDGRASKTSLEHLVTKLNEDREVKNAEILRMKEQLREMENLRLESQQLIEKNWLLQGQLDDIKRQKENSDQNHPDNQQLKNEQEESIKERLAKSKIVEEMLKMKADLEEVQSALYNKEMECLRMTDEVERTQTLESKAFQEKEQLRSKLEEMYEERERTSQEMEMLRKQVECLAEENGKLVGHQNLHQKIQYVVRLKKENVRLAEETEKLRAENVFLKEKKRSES

Chain of Centromere-associated protein E (Homo sapiens) (Q02224 whole entry, the tested form may be a part): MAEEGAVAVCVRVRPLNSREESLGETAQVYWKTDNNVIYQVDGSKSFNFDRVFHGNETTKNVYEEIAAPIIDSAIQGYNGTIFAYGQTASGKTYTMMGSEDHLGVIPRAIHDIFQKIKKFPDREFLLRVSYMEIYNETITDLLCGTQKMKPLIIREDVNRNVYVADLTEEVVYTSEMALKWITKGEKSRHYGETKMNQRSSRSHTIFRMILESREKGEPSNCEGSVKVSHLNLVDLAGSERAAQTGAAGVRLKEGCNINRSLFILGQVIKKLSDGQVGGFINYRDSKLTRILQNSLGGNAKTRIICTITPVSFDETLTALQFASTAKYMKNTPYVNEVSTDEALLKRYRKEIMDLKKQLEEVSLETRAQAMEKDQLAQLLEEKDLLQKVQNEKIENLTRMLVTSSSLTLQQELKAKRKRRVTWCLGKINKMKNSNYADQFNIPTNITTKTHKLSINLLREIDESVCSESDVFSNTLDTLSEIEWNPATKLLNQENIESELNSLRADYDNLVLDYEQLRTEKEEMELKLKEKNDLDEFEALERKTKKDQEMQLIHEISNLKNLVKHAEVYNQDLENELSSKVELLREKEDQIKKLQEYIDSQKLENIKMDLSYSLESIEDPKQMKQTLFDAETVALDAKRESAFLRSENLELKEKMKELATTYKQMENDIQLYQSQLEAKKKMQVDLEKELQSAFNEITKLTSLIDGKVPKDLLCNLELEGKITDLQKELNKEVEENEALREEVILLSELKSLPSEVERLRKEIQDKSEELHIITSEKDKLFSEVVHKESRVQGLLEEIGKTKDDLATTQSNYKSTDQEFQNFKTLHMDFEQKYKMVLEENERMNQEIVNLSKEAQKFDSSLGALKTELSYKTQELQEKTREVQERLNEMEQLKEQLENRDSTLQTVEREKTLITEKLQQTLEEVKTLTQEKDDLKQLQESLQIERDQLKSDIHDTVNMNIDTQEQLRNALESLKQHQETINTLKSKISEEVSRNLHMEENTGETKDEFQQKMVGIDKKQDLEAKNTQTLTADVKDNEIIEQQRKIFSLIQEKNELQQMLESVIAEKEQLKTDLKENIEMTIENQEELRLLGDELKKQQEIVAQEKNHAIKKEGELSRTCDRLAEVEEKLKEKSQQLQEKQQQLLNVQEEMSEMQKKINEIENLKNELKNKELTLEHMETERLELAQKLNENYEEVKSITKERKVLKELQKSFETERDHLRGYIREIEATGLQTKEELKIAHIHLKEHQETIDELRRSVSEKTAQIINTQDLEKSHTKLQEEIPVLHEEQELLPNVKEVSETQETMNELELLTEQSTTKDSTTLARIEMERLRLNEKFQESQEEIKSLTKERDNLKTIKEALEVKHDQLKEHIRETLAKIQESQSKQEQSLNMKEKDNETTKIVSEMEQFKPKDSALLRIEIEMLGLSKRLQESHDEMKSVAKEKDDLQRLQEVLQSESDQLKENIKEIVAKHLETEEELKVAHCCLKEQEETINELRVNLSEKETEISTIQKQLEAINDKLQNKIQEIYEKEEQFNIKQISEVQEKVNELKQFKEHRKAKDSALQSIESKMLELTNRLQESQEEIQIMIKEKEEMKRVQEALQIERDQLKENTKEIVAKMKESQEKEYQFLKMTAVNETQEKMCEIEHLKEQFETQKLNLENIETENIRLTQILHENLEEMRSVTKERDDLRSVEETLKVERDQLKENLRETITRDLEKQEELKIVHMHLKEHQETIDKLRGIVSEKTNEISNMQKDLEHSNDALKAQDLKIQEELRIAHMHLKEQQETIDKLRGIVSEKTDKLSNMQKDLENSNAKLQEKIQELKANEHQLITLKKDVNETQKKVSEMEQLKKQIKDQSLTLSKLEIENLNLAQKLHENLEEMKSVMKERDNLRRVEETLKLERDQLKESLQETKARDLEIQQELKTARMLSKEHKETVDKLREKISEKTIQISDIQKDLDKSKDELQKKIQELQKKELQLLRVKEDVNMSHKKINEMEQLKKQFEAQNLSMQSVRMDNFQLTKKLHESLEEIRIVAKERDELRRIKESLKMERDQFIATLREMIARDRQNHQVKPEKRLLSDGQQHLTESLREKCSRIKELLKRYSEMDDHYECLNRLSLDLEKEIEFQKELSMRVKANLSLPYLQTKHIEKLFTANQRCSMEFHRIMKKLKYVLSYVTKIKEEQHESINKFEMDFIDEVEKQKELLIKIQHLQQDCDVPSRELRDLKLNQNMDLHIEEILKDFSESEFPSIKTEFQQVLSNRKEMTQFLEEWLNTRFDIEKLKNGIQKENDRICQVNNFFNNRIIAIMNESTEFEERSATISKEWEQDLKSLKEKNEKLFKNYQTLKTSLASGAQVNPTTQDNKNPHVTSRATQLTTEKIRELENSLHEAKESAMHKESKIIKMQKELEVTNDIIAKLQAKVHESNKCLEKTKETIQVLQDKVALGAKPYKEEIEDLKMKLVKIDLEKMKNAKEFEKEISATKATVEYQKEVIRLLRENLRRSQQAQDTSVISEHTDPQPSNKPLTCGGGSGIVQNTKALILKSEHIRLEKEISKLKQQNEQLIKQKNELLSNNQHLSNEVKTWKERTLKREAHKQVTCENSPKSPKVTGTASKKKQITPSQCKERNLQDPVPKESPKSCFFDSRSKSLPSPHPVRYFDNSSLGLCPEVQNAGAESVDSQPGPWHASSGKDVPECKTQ

Q: Which results are given for `N[C@@H](CSC1(c2ccc(C(F)(F)F)cc2)c2ccccc2CCc2ccccc21)C(=O)O`?
A: inhibition [1]: inactive; Activity (Mus musculus): Non-toxic; IC50 [2]: 21 nM; inhibition [3]: inactive

Q: With `COc1ccc(C2(SC[C@H](N)C(=O)O)c3ccccc3CCc3ccccc32)cc1` as the compound, how does the inhibition [1] read?
A: The inhibition was “inactive”.

Q: What about the Activity (Mus musculus) of the same compound?
A: The Activity was “Non-toxic”.

Q: And the IC50 [2]?
A: Its IC50 is 14 nM.

Q: And the inhibition [3]?
A: The inhibition was “inactive”.

Reference: ChEMBL document CHEMBL3632570, “Structure-Guided Design of Novel l-Cysteine Derivatives as Potent KSP Inhibitors” (ACS Med Chem Lett, 2015)
